In brackets after ≈: the same amount, converted by molar mass. Several values for one entry are separate records, joined by “and”; a condition that tells them apart may be missing. Identical values can stand only once. Counter-ions that a name gives are not always drawn. Blank lines part the entries; values can stand above or below the compound they belong to.
What was measured:
[1] = system: A431 (EGFR over-expressing skin cancer); assay: In vitro anticancer assay (SRB), A431; assay type: cell-based, human
Protocol: (§1) In Vitro Anticancer Assay (Nakanishi, Y. et al., J. Med. Chem. 2003, 46, 3185). All stock cultures were grown in T-25 flasks. Freshly trypsinized cell suspensions were seeded in 96-well microtiter plates at densities of 1500-7500 cells per well with compounds added from DMSO-diluted stock. After 3 days in culture, attached cells were fixed with cold 50% trichloroacetic acid and then stained with 0.4% sulforhodamine B (SRB). The absorbency at 562 nm was measured using a microplate reader after solubilizing the bound dye. The mean ED50 is the concentration of agent that reduces cell growth by 50% under the experimental conditions and is the average from at least three independent determinations that were reproducible and statistically significant (FIG. 2). The following human tumor cell lines were used in the assay: A549 (non small cell lung cancer), MCF-7 (estrogen receptor positive breast cancer), ZR-75-1 (estrogen receptor positive breast cancer), MDA-MB-231 (estrogen receptor negative breast cancer), HS 587-T (estrogen receptor negative breast cancer), SK− BR-3 (HER-2-overexpressing breast cancer), A431 (EGFRoverexpressing skin cancer), LN-CaP (AR-dependent prostate cancer), SW620 (colon cancer), PC-3 (prostate cancer), KB (nasopharyngeal carcinoma), KB-VIN (vincristine-resistant KB subline). All cell lines were obtained from the Lineberger Comprehensive Cancer Center (UNC-CH) or from ATCC (Rockville, Md.) and were cultured in RPMI-1640 medium supplemented with 25 mMHEPES, 0.25% sodium bicarbonate, 10% fetal bovine serum, and 100 μg/mL kanamycin.
(§2) Biological assay. All stock cultures are grown in T-25 flasks. Freshly trypsinized cell suspensions were seeded in 96-well microtitre plates at densities of 1500-7500 cells per well with compounds added from DMSO-diluted stock. After 3 days in culture, attached cells were fixed with cold 50% trichloroacetic acid and then stained with 0.4% sulforhodamine B (SRB). The absorbency at 562 nm was measured using a microplate reader after solubilizing the bound dye. The mean ED50 is the concentration of agent that reduces cell growth by 50% under the experimental conditions and is the average from at least three independent determinations that were reproducible and statistically significant. The following human tumor cell lines were used in the assay: A549 (non-small cell lung cancer), MCF-7 (estrogen receptor positive breast cancer), ZR-75-1 (estrogen receptor positive breast cancer), MDA MB-231 (estrogen receptor negative breast cancer), HS 587-T (estrogen receptor negative breast cancer), SK-BR-3 (estrogen receptor negative, HER-2 over-expressing breast cancer), A431 (EGFR over-expressing skin cancer), LN-CaP (AR-dependent prostate cancer), SW620 (colon cancer), PC-3 (prostate cancer), KB (nasopharyngeal carcinoma), KB-VIN (Vincristine resistant KB subline). All cell lines were obtained from the Lineberg Cancer Center (UNC-CH) or from ATCC (Rockville, Md.) and were cultured in RPMI-1640 medium supplemented with 25 mM HEPES, 0.25% sodium bicarbonate, 10% fetal bovine serum, and 100 μg/mL kanamycin.

[2] = system: HS 587-T (estrogen receptor negative breast cancer); assay: In vitro anticancer assay (SRB), HS 587-T; assay type: cell-based, human; conditions: concentration that reduces cell growth by 50%, 3 days in culture
Protocol: (§3) All stock cultures were grown in T-25 flasks. Freshly trypsinized cell suspensions were seeded in 96-well microtiter plates at densities of 1500-7500 cells per well with compounds added from DMSO-diluted stock. After 3 days in culture, attached cells were fixed with cold 50% trichloroacetic acid and then stained with 0.4% sulforhodamine B (SRB). The absorbency at 562 nm was measured using a microplate reader after solubilizing the bound dye.
as §3, with “Biological assay. All” for “All”, “cultures are” for “cultures were”, “96-well microtitre” for “96-well microtiter”

SW620 (colon cancer) = assay: In vitro anticancer assay (SRB), SW620; assay type: cell-based, human
Protocol: as §1, §2

[3] = system: ZR-75-1 (estrogen receptor positive breast cancer); assay: In vitro anticancer assay (SRB), ZR-75-1; assay type: cell-based, human; conditions: concentration that reduces cell growth by 50%, 3 days in culture
Protocol: as §3
as §3, with “Biological assay. All” for “All”, “cultures are” for “cultures were”, “96-well microtitre” for “96-well microtiter”

[4] = system: KB (nasopharyngeal carcinoma); assay: In vitro anticancer assay (SRB), KB; assay type: cell-based, human
Protocol: as §1, §2

[5] = system: SK-BR-3 (HER-2-overexpressing breast cancer); assay: In vitro anticancer assay (SRB), SK-BR-3; assay type: cell-based, human
Protocol: as §1, §2

[6] = system: KB-VIN (vincristine-resistant KB subline); assay: In vitro anticancer assay (SRB), KB-VIN; assay type: cell-based, human; conditions: for ED50, KB-VIN: concentration that reduces cell growth by 50%, 3 days in culture, SRB
Protocol: as §1
as §3, with “Biological assay. All” for “All”, “cultures are” for “cultures were”, “96-well microtitre” for “96-well microtiter”, “dye. […]” for “dye.”

[7] = system: ER+ human breast cancer (MCF-7 and ZR-75-1); assay: Comparison of potency and selectivity against ER+ breast cancer cell lines in vitro; assay type: cell-based
Protocol: as §1
as §3, with “Biological assay. All” for “All”, “cultures are” for “cultures were”, “96-well microtitre” for “96-well microtiter”, “dye. The mean ED50 is the concentration of agent that reduces cell growth by 50% under the experimental conditions and is the average from at least three independent determinations that were reproducible and statistically significant. […]” for “dye.”

[8] = system: A549 (non small cell lung cancer); assay: In vitro anticancer assay (SRB), A549; assay type: cell-based, human
Protocol: as §3, with “In Vitro Anticancer Assay (Nakanishi, Y. et al., J. Med. Chem. 2003, 46, 3185). All” for “All”, “dye. The mean ED50 is the concentration of agent that reduces cell growth by 50% under the experimental conditions and is the average from at least three independent determinations that were reproducible and statistically significant (FIG. 2). […]” for “dye.”
(§4) Biological assay. […] The absorbency at 562 nm was measured using a microplate reader after solubilizing the bound dye. […]

[9] = system: MCF-7 (estrogen receptor positive breast cancer); assay: In vitro anticancer assay (SRB), MCF-7; assay type: cell-based, human
Protocol: as §3
as §3, with “Biological assay. All” for “All”, “cultures are” for “cultures were”, “96-well microtitre” for “96-well microtiter”

[10] = system: LN-CaP (AR-dependent prostate cancer); assay: In vitro anticancer assay (SRB), LN-CaP; assay type: cell-based, human; conditions: for ED50, LN-CaP: concentration that reduces cell growth by 50%, 3 days in culture, SRB
Protocol: as §1
as §3, with “Biological assay. All” for “All”, “cultures are” for “cultures were”, “96-well microtitre” for “96-well microtiter”, “dye. The mean ED50 is the concentration of agent that reduces cell growth by 50% under the experimental conditions and is the average from at least three independent determinations that were reproducible and statistically significant. […]” for “dye.”

[11] = system: MDA-MB-231 (estrogen receptor negative breast cancer); assay: In vitro anticancer assay (SRB), MDA-MB-231; assay type: cell-based, human
Protocol: as §3
as §3, with “Biological assay. All” for “All”, “cultures are” for “cultures were”, “96-well microtitre” for “96-well microtiter”

PC-3 (prostate cancer) = assay: In vitro anticancer assay (SRB), PC-3; assay type: cell-based, human; conditions: concentration that reduces cell growth by 50%, 3 days in culture
Protocol: as §3, with “In Vitro Anticancer Assay (Nakanishi, Y. et al., J. Med. Chem. 2003, 46, 3185). All” for “All”, “dye. The mean ED50 is the concentration of agent that reduces cell growth by 50% under the experimental conditions and is the average from at least three independent determinations that were reproducible and statistically significant (FIG. 2). […]” for “dye.”
as §4

[12] = system: several human cancer cell lines; assay: Cytotoxic activity against several human tumor cell lines (panel, overall statements); assay type: cell-based; conditions: at concentrations up to 10 μg/mL
Protocol: as §1
as §3, with “Biological assay. All” for “All”, “cultures are” for “cultures were”, “96-well microtitre” for “96-well microtiter”, “dye. […]” for “dye.”

[13] = concentration that reduces cell growth by 50%, 3 days in culture, SRB
[14] = against ER+ (ER+ and HER-2++) breast cancer in vitro
[15] = concentration that reduces cell growth by 50%, 3 days in culture, SRB, listed as Neo-tashinlactone (1)
[16] = concentration that reduces cell growth by 50%, 3 days in culture, SRB, listed as Tamoxifen citrate

ED50, HS 587-T (ER−) ([2]; printed HS587-1 in Table 4): 16 µg/mL and 16.0 µg/mL
ED50, ZR-75-1 (ER+) [3]: 0.25 µg/mL (≈ 0.946 µM)
Percent inhibition at the test concentration (bracketed value), MCF-7 ([9]; at 2.5 μg/mL (Table 1)): 57%
ED50, MCF-7 (ER+) [9, 13]: 0.6 µg/mL and 0.60 µg/mL
ED50, MCF-7 (ER+) [9, 15]: < 2.5 µg/mL
concentration at which active against MCF-7 ([9]; first screen, Example 1): 0.6˜1.2 μg/mL
Percent inhibition at the test concentration (bracketed value), MDA-MB-231 ([11]; at 20 μg/mL (Table 1)): 17%
ED50, MDA-MB-231 (ER−) [11, 13]: 10 µg/mL and 10.0 µg/mL
ED50, MDA-MB-231 (ER−) [11, 15]: > 20 µg/mL
SMILES: Cc1cccc2c1ccc1c3occ(C)c3c(=O)oc21 [Compound 1, Neo-tanshinlactone]
activity against A431 (in words) ([1]; EGFR overexpressing skin cancer cell line): essentially inactive
Percent inhibition at the test concentration (bracketed value), A431 ([1]; at 10 μg/mL (Table 2)): 35%
ED50, A431 [1, 13]: > 10 µg/mL
Percent inhibition at the test concentration (bracketed value), SW620 (SW620 (colon cancer); at 10 μg/mL (Table 2)): 22%
ED50, SW620 (SW620 (colon cancer); [13]): > 10 µg/mL
Percent inhibition at the test concentration (bracketed value), KB ([4]; at 10 μg/mL (Table 2)): 18%
ED50, KB [4, 13]: > 10 µg/mL
activity against SK-BR-3 (in words) ([5]; HER-2-overexpressing breast cancer cell line): active
ED50, SK-BR-3 (ER−, HER2+) [5, 13]: 0.2 µg/mL and 0.18 µg/mL
fold more sensitive, SK-BR-3 versus MCF-7 ([5]; ratio of sensitivity of the two cell lines): 3 fold
Percent inhibition at the test concentration (bracketed value), KB-VIN ([6]; at 10 μg/mL (Table 2)): 9%
ED50, KB-VIN [6]: > 10 µg/mL
fold more potent than tamoxifen citrate [7, 14]: 10 fold
fold more selective than tamoxifen citrate [7, 14]: 20 fold
times better activity than compound 2a and tamoxifen ([7]; against ER+ cell lines): 10 times
Percent inhibition at the test concentration (bracketed value), A549 ([8]; at 20 μg/mL (Table 1)): 10%
ED50, A549 [8, 13]: > 20 µg/mL
activity against LN-CaP (in words) ([10]; AR-dependent prostate cancer cell line): essentially inactive
Percent inhibition at the test concentration (bracketed value), LN-CaP ([10]; at 10 μg/mL (Table 2)): 28-36%
ED50, LN-CaP [10]: > 10 µg/mL
ED50, PC-3 (PC-3 (prostate cancer)): 10 µg/mL (≈ 37.8 µM)
activity against other cell lines in the panel (in words) [12]: insignificant activity

SMILES: CC/C(=C(\c1ccccc1)c1ccc(OCCN(C)C)cc1)c1ccccc1 [TAM, tamoxifen citrate, reference compound]
IC50 ([1]; Homo sapiens, A-431, 72 h, concentration that reduces cell growth by 50%, 3 days in culture, SRB, read-out: ED50, A431): 7 µg/mL
ED50, A431 [1, 13]: 7.0 µg/mL
ED50, HS 587-T (ER−) ([2]; printed HS587-1 in Table 4): 9 µg/mL and 7.0 µg/mL
ED50, HS 587-T (ER−) ([2]; printed HS587-1 in Table 4, listed as Tamoxifen citrate): 8.5 µg/mL
IC50 (SW620 (colon cancer); Homo sapiens, SW-620, 72 h, concentration that reduces cell growth by 50%, 3 days in culture, SRB, read-out: ED50, SW620): 4 µg/mL
ED50, SW620 (SW620 (colon cancer); [13]): 4.0 µg/mL
IC50 ([3]; Homo sapiens, ZR-75-1, 72 h, read-out: ED50, ZR-75-1 (ER+)): 5 µg/mL
ED50, ZR-75-1 (ER+) ([3]; listed as Tamoxifen citrate): 3.6 µg/mL
IC50 ([4]; Homo sapiens, 72 h, concentration that reduces cell growth by 50%, 3 days in culture, SRB, read-out: ED50, KB): 9 µg/mL
ED50, KB [4, 13]: 9.0 µg/mL
IC50 ([5]; Homo sapiens, SK-BR-3, 72 h, concentration that reduces cell growth by 50%, 3 days in culture, SRB, read-out: ED50, SK-BR-3 (ER−, HER2+)): 5 µg/mL
ED50, SK-BR-3 (ER−, HER2+) [5, 13]: 5.0 µg/mL
ED50, KB-VIN [6]: 9 µg/mL
IC50 ([9]; Homo sapiens, MCF7, 72 h, concentration that reduces cell growth by 50%, 3 days in culture, SRB, read-out: ED50, MCF-7 (ER+)): 5 µg/mL
ED50, MCF-7 (ER+) [9, 13]: 5.0 µg/mL
ED50, MCF-7 (ER+) [9, 16]: 5.0 µg/mL
ED50, LN-CaP [10]: 6 µg/mL
IC50 ([11]; Homo sapiens, MDA-MB-231, 72 h, concentration that reduces cell growth by 50%, 3 days in culture, SRB, read-out: ED50, MDA-MB-231 (ER−)): 8 µg/mL
ED50, MDA-MB-231 (ER−) [11, 16]: 7.0 µg/mL
ED50, PC-3 (PC-3 (prostate cancer)): 10 µg/mL
